How the values were obtained:
[1] = target: Epidermal growth factor receptor (Homo sapiens, UniProt P00533); assay: DRUGMATRIX: Protein Tyrosine Kinase, EGF Receptor enzyme inhibition (substrate: Poly(Glu:Tyr)); format: cell-based, Insect cells; conditions: Not Active = under 50% inhibition at 10 µM
Substance-K receptor = target: T1, Substance-K receptor (Homo sapiens, UniProt P21452); format: cell membranes, CHO, Membrane; also: in other assays of this panel Not Active means under 50% inhibition at 10 µM
T1 sequence (P21452 whole entry): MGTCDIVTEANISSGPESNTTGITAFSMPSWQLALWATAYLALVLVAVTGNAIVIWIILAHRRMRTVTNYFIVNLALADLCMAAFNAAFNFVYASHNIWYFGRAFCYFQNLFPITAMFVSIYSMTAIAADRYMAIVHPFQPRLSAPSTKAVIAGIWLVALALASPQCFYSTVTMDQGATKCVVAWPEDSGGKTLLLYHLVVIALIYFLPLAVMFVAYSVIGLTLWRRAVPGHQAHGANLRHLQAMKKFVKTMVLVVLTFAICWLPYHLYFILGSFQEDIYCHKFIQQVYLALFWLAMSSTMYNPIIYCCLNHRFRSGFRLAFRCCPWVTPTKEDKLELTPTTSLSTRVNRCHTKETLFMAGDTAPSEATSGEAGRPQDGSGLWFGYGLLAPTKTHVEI

Androgen receptor = target: T2, Androgen receptor (Rattus norvegicus, UniProt P15207); also: in other assays of this panel Not Active means under 50% inhibition at 10 µM
T2 sequence (P15207 whole entry): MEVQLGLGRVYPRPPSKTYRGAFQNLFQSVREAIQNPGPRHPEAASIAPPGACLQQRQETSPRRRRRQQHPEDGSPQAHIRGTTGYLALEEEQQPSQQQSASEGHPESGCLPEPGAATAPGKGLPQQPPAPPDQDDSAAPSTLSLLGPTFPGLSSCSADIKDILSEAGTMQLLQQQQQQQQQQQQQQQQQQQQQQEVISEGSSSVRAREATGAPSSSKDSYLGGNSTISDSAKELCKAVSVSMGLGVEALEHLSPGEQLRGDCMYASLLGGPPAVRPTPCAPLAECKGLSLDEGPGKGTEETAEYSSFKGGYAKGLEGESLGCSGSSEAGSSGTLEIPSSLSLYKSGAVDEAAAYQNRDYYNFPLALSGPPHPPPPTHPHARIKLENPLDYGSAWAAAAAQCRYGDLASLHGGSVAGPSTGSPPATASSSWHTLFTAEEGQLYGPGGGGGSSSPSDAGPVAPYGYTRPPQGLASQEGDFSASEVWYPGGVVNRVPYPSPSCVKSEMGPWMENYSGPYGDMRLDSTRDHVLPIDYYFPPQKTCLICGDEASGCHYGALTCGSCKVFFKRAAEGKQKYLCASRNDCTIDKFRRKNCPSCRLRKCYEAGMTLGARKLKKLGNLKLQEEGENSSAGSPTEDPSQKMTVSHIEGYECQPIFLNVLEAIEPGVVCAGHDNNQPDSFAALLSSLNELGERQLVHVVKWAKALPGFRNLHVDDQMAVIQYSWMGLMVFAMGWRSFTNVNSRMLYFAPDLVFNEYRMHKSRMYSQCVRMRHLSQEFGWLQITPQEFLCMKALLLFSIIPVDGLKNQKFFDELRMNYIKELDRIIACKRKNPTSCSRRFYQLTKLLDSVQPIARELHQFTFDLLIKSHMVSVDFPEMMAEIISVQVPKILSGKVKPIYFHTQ

[2] = target: T3, Amine oxidase [flavin-containing] A (Homo sapiens, UniProt P21397); assay: DRUGMATRIX: Monoamine Oxidase MAO-A enzyme inhibition (substrate: Kynuramine); parameters: species or system BTI-TN-5B1-4; conditions: Not Active = under 50% inhibition at 10 µM
T3 sequence (P21397 whole entry): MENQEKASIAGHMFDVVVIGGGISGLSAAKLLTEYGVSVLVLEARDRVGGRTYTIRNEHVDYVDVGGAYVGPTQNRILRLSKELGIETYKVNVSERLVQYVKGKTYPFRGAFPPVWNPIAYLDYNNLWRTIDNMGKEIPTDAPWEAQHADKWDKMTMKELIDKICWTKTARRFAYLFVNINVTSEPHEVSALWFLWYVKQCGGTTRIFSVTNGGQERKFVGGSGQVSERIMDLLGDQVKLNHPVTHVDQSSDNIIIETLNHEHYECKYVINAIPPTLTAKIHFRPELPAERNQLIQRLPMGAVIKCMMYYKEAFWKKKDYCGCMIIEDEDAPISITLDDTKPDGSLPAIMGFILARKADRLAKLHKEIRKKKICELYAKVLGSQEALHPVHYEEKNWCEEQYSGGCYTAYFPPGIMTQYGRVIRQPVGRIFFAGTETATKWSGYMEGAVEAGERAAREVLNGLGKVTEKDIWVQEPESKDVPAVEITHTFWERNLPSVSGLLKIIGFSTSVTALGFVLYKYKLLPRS

[3] = DRUGMATRIX: Interleukin IL-1 radioligand binding (ligand: [125I] interleukin 1beta); format: cell membranes, Membrane; conditions: nih3t3; Not Active = under 50% inhibition at 10 µM
Cytochrome P450 1A2 = target: T4, Cytochrome P450 1A2 (Homo sapiens, UniProt P05177); also: in other assays of this panel Not Active means under 50% inhibition at 10 µM
T4 sequence (P05177 whole entry): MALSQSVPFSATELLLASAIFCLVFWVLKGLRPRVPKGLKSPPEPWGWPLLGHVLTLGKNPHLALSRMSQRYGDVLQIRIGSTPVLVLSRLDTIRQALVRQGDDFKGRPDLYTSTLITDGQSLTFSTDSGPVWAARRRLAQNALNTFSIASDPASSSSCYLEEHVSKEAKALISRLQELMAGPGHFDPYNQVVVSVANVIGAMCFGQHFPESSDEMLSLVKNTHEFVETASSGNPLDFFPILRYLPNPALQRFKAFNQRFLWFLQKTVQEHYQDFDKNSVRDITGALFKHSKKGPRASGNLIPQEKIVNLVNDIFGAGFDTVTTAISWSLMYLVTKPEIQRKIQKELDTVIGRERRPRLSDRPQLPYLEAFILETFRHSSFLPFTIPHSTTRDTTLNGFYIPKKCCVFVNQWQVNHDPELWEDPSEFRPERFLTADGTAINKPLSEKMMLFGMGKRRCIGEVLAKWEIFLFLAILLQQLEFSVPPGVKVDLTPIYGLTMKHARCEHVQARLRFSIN

Cytochrome P450 2C9 = Cytochrome P450 2C9 (Homo sapiens, UniProt P11712); also: in other assays of this panel Not Active means under 50% inhibition at 10 µM
Cytochrome P450 2D6 = Cytochrome P450 2D6 (Homo sapiens, UniProt P10635); also: in other assays of this panel Not Active means under 50% inhibition at 10 µM
Cytochrome P450 2D6, sequence (P10635 whole entry): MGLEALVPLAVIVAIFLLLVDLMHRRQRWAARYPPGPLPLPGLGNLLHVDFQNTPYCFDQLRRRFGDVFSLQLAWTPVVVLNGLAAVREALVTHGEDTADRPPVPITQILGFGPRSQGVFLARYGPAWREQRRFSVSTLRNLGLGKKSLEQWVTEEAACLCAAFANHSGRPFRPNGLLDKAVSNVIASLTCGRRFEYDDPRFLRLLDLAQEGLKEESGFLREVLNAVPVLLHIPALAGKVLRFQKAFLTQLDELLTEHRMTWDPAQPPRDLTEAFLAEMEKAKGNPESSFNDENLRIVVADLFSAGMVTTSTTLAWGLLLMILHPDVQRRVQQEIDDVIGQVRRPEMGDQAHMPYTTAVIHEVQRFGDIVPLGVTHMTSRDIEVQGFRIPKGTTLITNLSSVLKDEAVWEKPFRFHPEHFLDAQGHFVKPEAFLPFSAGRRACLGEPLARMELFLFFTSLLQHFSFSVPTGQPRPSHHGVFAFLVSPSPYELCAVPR

Epidermal growth factor receptor, sequence (P00533 whole entry): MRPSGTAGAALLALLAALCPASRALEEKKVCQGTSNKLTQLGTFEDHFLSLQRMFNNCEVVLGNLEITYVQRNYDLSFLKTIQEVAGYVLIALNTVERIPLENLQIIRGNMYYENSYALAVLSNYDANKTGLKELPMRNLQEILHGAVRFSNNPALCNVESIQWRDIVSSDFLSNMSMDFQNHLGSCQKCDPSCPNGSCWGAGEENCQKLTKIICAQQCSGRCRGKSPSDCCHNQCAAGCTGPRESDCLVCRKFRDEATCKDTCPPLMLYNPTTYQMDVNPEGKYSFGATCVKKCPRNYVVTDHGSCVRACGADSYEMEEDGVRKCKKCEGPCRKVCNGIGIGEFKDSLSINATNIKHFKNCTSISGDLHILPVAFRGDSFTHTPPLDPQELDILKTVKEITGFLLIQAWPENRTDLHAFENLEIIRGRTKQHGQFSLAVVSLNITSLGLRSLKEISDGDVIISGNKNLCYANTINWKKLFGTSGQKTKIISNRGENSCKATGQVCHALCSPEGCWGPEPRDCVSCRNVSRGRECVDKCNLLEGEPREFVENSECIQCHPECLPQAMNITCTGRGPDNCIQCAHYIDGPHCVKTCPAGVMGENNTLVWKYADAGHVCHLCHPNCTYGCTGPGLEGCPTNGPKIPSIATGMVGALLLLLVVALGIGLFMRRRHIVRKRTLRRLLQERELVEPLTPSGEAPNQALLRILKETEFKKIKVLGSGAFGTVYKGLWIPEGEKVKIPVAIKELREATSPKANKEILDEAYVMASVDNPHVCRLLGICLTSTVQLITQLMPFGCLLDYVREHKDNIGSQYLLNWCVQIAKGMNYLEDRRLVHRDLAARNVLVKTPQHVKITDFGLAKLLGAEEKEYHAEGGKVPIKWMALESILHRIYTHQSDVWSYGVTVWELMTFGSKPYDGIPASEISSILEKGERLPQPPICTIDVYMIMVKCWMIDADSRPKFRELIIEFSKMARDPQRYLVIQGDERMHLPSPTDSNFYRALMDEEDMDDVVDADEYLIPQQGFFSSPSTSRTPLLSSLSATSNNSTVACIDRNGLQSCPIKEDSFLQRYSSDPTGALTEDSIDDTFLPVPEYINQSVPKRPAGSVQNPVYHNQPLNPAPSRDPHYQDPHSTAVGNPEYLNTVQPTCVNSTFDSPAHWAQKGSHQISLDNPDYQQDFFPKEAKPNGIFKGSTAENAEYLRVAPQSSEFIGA
Cytochrome P450 2C9, sequence (P11712 whole entry): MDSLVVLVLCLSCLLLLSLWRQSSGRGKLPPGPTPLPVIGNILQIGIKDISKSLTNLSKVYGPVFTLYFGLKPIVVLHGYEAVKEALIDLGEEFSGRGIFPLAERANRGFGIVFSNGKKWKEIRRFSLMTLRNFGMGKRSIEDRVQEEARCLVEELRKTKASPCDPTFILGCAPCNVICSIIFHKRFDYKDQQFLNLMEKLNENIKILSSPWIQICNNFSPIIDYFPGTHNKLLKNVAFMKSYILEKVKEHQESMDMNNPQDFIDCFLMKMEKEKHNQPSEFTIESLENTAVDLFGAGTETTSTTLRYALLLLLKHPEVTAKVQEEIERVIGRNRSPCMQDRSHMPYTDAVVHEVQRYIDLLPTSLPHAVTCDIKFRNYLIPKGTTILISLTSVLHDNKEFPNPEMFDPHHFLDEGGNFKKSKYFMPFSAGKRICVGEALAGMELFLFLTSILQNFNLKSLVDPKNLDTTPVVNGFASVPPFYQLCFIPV

Compound | IC50 ([1]; insect cells) | IC50 (Substance-K receptor; cho) | IC50 (Androgen receptor) | IC50 ([2]; bti-tn-5b1-4) | IC50 [3] | Ki [3] | IC50 ([2]; read-out: IC50) [µM] | IC50 (Cytochrome P450 1A2) [µM] | IC50 ([1]; read-out: IC50) [µM] | IC50 (Cytochrome P450 2C9) [µM] | IC50 (Substance-K receptor; read-out: IC50) [µM] | Ki (Substance-K receptor; read-out: Ki) [µM] | IC50 (Cytochrome P450 2D6) [µM]
C=CCN1CC[C@]23c4c5ccc(O)c4O[C@H]2/C(=N/N=C2\CC[C@@]4(O)[C@H]6Cc7ccc(O)c8c7[C@@]4(CCN6CC=C)[C@H]2O8)CC[C@@]3(O)[C@H]1C5 [NALOXONAZINE] | Not Active | Not Active | Not Active | Not Active | Not Active | Not Active | – | – | – | – | – | – | –
c1ccc2c(c1)Nc1ccccc1S2 [PHENOTHIAZINE] | Not Active | Not Active | – | – | Not Active | Not Active | 0.592 | 0.016 | – | – | – | – | –
CN(CCOc1ccc(C[C@H](Nc2ccccc2C(=O)c2ccccc2)C(=O)O)cc1)c1ccccn1 | – | – | Not Active | Not Active | Not Active | Not Active | – | – | 10.9 | 4 | 14.5 | 4.84 | –
OC[C@H]1OC2C3[C@@H](CO)OC(O[C@H]4[C@H](O)[C@@H](O)[C@@H](O[C@H]5[C@H](O)[C@@H](O)[C@@H](O[C@H]6[C@H](O)[C@@H](O)[C@@H](O[C@H]7[C@H](O)[C@@H](O)[C@@H](O[C@H]8[C@H](O)[C@@H](O)[C@@H](O[C@H]9[C@H](O)[C@@H](O)C(OC1[C@H](O)[C@H]2O)O[C@@H]9CO)O[C@@H]8CO)O[C@@H]7CO)O[C@@H]6CO)O[C@@H]5CO)O[C@@H]4CO)[C@H](O)[C@H]3O | Not Active | Not Active | Not Active | Not Active | Not Active | Not Active | – | – | – | – | – | – | –
C[C@]12CC[C@@H](O)C[C@@H]1CC[C@@H]1[C@@H]2CC[C@]2(C)C(=O)CC[C@@H]12 [ANDROSTERONE] | Not Active | Not Active | Not Active | Not Active | Not Active | Not Active | – | – | – | – | – | – | –
COc1cc([C@@H]2c3cc4c(cc3[C@H](O)[C@H]3COC(=O)[C@H]23)OCO4)cc(OC)c1OC [PODOFILOX] | Not Active | Not Active | Not Active | Not Active | Not Active | Not Active | – | – | – | 4 | – | – | –
COC(=O)C[C@](O)(CCC(C)(C)O)C(=O)O[C@@H]1C(OC)=C[C@]23CCCN2CCc2cc4c(cc2[C@H]13)OCO4 [HARRINGTONINE] | Not Active | Not Active | Not Active | Not Active | Not Active | Not Active | – | – | – | – | – | – | –
CCCCCCNC(=O)n1cc(F)c(=O)[nH]c1=O [CARMOFUR] | Not Active | Not Active | – | Not Active | Not Active | Not Active | – | – | – | – | – | – | 5
O=c1[nH]c2ccccc2c2ccccc12 | Not Active | Not Active | Not Active | Not Active | Not Active | Not Active | – | 0.016 | – | – | – | – | –
Nc1ccc(C(=O)O)c(O)c1 [AMINOSALICYLIC ACID] | Not Active | Not Active | Not Active | Not Active | Not Active | Not Active | – | – | – | – | – | – | –

— ChEMBL document CHEMBL1909046, “DrugMatrix in vitro pharmacology data”
